The values that follow come from US7030135B2, “Inhibitors of 11-β-hydroxy steroid dehydrogenase type 1” (Biovitrum AB, priority 2000, dated 2006).

In test [1] the target is T1, human 11-β-hydroxysteroid dehydrogenase type-1 enzyme (11-β-HSD1) (Homo sapiens, UniProt P28845).
T1 construct: made in house; host or cells: Pichia pastoris
Kind of test: 11-β-HSD1 enzyme scintillation proximity assay. The class given is biochemical. Particulars: human 11-β-HSD1 expressed in Pichia pastoris; Ki calculated from IC50 (Cheng-Prusoff). From the text:
[1,2(n)-^3H]-cortisone was purchased from Amersham Pharmacia Biotech. Anti-cortisol monoclonal mouse antibody, clone 6D6.7 was obtained from Immunotech and Scintillation proximity assay (SPA) beads coated with monoclonal antimouse antibodies were from Amersham Pharmacia Biotech. NADPH, tetrasodium salt was from Calbiochem and glucose-6-phosphate (G-6-P) was supplied by Sigma The human 11-β-hydroxysteroid dehydrogenase type-1 enzyme (11-β-HSD1) was expressed in Pichia pastoris. 18-β-glycyrhetinic acid (GA) was obtained from Sigma. The serial dilutions of the compounds were performed on a Tecan Genesis RSP 150. […]
The multiplication of plates was done on a WallacQuadra. The amount of the product [^3H]-cortisol, bound to the beads was determined in a Packard, Top Count microplate liquid scintillation counter. […]
The plates were covered with plastic film and incubated on a shaker for 30 minutes, at room temperature, before counting. The amount of [^3H]-cortisol, bound to the beads was determined in a microplate liquid scintillation counter.
The calculation of the Ki values for the inhibitors was performed by use of Activity Base. The Ki value is calculated from IC50 and the Km value is calculated using the Cheng Prushoff equation (with reversible inhibition that follows the Michaelis-Menten equation): […] [Cheng, Y. C.; Prushoff, W. H. Biochem. Pharmacol. 1973, 22, 3099–3108]. […]

For another test, the system named is bone nodule formation. Particulars: cited from earlier work.

Molecules are shown by their SMILES.

T1 sequence (P28845 whole entry): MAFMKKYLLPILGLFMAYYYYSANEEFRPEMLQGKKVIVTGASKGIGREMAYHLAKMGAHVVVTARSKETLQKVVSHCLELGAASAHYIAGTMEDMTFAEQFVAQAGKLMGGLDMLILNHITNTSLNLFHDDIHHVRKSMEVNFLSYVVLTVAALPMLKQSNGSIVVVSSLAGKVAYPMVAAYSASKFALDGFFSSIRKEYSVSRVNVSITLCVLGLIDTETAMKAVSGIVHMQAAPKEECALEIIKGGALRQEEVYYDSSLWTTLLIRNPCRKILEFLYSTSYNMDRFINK

The term Ki denotes the dissociation constant of the complex between target and ligand, obtained from inhibition or displacement. As for `Cc1cc(Cl)cc(Cl)c1S(=O)(=O)Nc1nc2c(s1)C(=O)CC(C)(C)C2` [Example 8, 2,4-Dichloro-N-(5,5-dimethyl-7-oxo-4,5,6,7-tetrahydro-1,3-benzothiazol-2-yl)-6-methylbenzenesulfonamide.], in test [1], the Ki is 0.028 µM.

Consider `Cc1cc(Br)ccc1S(=O)(=O)Nc1nc2c(s1)C(=O)CC(C)C2` (stereo not drawn) [Example 16, 4-Bromo-2methyl-N-(5methyl-7-oxo-4,5,6,7-tetrahydro-1,3-benzothiazol-2-yl)benzenesulfonamide], for which the Ki in test [1] is 0.227 µM.

`CC1(C)[C@@H](OC(=O)CCC(=O)O)CC[C@]2(C)[C@H]3C(=O)C=C4[C@@H]5C[C@@](C)(C(=O)O)CC[C@]5(C)CC[C@@]4(C)[C@]3(C)CC[C@@H]12` [carbenoxolone]: the “negative glucocorticoid effect on bone nodule formation” value with bone nodule formation is on record as “could be blocked”.
